Results on 1 compound are retold here after paper PMC3042041 (ACS chemical biology, 2010).

The assay has as its target T1, REV-ERBα (Homo sapiens, UniProt P20393).
T1 sequence (P20393 1-614): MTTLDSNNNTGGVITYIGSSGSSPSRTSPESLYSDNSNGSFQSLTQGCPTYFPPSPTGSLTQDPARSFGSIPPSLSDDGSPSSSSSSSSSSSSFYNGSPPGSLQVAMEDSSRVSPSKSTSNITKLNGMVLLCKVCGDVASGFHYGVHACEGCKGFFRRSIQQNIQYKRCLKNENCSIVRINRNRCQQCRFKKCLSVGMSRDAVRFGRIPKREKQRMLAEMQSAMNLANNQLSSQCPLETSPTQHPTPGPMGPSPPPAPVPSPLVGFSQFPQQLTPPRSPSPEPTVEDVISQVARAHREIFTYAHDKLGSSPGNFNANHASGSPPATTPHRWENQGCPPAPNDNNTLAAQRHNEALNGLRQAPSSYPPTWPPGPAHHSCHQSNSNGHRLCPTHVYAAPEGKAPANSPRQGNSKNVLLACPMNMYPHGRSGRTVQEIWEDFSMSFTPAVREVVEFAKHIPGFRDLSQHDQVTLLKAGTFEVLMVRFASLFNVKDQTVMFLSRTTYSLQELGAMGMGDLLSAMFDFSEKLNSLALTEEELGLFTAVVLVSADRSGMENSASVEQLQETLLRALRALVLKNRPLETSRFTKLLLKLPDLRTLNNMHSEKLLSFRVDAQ
The assay is described as follows: Bmal1-luciferase / REV-ERBα cotransfection reporter assay in HEK293 cells. The format is cell-based. A general note: A reporter such as luciferase makes a cellular process visible.

A word on the IC50: it is the concentration that inhibits the measured activity by half. A low value points to inhibition by little substance. Consider `CC(C)(C)OC(=O)CN(Cc1ccc(Cl)cc1)Cc1ccc([N+](=O)[O-])s1` [GSK4112], for which the IC50 is 2.3 µM.
